Experimental data from patent publication US11352350B2, “IRAK degraders and uses thereof” (Kymera Therapeutics, Inc., priority 2018, dated 2022).
Like-named read-outs stand apart in the source and are kept apart here.

Tests used:
[1] = system: SU-DHL2; test: SU-DHL2 viability, CTG; type: cell-based
[2] = biological target: T1, AIOLOS (Homo sapiens (Human), UniProt Q96SW2+Q9UKT9); test: Aiolos degradation in OCI-LY10 tumor xenograft; type: in vivo; settings: sample time 24 h
[3] = biological target: T2, IRAK4 (Homo sapiens (Human), UniProt Q9NWZ3); test: IRAK4 degradation in OCI-LY10 tumor xenograft; type: in vivo; settings: for IRAK4 ↓ (% Control): OCI-LY10 tumor xenograft, sample time 24 h
T2 sequence (Q9NWZ3 whole entry): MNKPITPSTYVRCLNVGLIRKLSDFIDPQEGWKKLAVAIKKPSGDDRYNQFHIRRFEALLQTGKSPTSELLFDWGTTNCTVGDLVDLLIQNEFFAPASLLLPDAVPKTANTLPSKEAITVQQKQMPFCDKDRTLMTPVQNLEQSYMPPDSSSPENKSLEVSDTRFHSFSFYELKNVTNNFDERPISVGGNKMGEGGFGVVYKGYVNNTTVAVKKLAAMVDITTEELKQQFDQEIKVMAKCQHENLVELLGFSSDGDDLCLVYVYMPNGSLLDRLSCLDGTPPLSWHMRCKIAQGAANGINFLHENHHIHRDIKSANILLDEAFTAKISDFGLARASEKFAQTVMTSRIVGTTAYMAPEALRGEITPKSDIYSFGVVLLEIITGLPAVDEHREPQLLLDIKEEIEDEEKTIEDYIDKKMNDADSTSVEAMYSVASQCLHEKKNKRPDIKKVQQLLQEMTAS

[4] = biological target: T2, IRAK4; test: IRAK4 degradation in OCI-LY10 (DC50); type: cell-based
[5] = biological target: T3, IKAROS (Homo sapiens (Human), UniProt Q13422+Q96SW2); test: IKAROS degradation in OCI-LY10 (DC50); type: cell-based
T3 sequence (Q13422 whole entry): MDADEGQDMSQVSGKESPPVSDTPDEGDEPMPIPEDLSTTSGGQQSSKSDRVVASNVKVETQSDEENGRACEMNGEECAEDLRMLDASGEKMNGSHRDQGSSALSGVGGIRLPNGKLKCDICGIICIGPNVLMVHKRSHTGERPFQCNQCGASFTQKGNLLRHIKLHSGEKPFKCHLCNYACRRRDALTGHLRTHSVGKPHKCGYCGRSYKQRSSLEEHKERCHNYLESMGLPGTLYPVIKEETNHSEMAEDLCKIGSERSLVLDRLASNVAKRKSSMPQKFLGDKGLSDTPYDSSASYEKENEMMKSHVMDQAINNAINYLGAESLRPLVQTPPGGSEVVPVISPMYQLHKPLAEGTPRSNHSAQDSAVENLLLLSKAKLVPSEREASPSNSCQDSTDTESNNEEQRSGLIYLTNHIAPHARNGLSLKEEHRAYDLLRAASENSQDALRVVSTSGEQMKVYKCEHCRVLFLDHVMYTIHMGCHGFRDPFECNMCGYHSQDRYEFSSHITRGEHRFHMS
T3 sequence (Q96SW2 whole entry): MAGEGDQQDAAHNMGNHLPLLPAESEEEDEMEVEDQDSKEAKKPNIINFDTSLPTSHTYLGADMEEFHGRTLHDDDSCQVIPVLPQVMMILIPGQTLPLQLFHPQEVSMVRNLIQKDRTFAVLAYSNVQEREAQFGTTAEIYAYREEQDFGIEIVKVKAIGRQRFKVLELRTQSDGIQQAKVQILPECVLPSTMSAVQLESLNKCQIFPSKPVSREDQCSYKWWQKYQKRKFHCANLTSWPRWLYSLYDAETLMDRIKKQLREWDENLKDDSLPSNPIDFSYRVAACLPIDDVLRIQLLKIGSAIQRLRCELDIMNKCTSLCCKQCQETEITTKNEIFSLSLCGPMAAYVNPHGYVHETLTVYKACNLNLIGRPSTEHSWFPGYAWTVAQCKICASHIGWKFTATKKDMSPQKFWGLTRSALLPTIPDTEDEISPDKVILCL
T3 sequence (Q16531 whole entry partner): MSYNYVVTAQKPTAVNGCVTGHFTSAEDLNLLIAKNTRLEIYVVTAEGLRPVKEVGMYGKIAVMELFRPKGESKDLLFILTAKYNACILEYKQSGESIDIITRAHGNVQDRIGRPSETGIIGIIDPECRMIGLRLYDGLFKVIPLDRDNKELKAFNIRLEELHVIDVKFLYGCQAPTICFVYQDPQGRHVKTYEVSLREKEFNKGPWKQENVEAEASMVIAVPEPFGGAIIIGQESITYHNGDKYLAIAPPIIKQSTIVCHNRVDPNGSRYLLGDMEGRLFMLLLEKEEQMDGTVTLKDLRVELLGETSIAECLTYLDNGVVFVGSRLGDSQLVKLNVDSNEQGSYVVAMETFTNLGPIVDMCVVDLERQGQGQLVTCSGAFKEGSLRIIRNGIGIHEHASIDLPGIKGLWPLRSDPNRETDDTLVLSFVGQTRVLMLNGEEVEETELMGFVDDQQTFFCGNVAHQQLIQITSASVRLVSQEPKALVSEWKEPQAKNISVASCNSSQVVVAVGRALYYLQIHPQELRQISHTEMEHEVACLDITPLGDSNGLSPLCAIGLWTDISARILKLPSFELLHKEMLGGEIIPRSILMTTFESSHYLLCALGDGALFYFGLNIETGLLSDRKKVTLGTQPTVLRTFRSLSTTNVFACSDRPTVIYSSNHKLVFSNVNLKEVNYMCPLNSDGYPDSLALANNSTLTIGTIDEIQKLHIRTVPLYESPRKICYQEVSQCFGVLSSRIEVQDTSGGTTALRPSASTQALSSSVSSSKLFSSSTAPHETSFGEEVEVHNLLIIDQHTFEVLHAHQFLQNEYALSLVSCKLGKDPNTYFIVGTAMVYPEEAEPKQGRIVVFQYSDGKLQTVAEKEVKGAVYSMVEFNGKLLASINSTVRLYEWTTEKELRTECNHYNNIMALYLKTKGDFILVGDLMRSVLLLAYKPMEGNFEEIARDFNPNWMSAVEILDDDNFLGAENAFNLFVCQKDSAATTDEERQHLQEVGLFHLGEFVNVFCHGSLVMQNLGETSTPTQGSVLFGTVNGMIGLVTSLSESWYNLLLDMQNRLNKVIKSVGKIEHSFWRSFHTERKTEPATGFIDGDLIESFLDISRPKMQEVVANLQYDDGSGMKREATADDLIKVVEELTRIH

[6] = biological target: T2, IRAK4; test: IRAK4 MSD degradation in OCI-LY10; type: cell-based; settings: MSD
Method in brief: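 OCI-LY10 cells treated with 8-point 1:3 dilutions (top 1 to 10 μM final) for 4 to 24 h at 37° C. Lysate IRAK4 measured by MSD sandwich immunoassay (2H9 capture, Y279 detection, SULFO-TAG anti-rabbit). DC50 from three-parameter logistic fit.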

[7] = system: IFIT3; test: Interferon response IFIT3 in OCI-LY10 tumor xenograft; type: in vivo; settings: sample time 24 h
[8] = system: U2932; test: U2932 viability, CTG; type: cell-based
[9] = biological target: T3, IKAROS; test: Ikaros degradation in OCI-LY10 tumor xenograft; type: in vivo; settings: sample time 24 h
[10] = system: OCI-LY10 tumor xenograft; test: OCI-LY10 tumor xenograft, tumor volume; type: in vivo; settings: PO
[11] = system: OCI-LY10; test: CTG Cell Viability Assay - OCI-LY10; type: cell-based, human; settings: OCI-LY10, 4 days, read-out: CTG Cell Viability Assay - OCI-LY10: Average external-IC50
Method in brief: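 OCI-LY10 cells exposed to 9-dose, 1:3 dilutions from 10 μM top (0.2% DMSO) for 4 days at 37° C, 5% CO2. Viability by CellTiter-Glo luminescence; IC50 from three-parameter logistic fit.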

[12] = system: OCI-LY3; test: OCI-LY3 viability, CTG; type: cell-based; settings: Homo sapiens, MYD88 MUT
[13] = system: OCI-LY19; test: OCI-LY19 viability, CTG; type: cell-based
[14] = system: IFIT1; test: Interferon response IFIT1 in OCI-LY10 tumor xenograft; type: in vivo; settings: sample time 24 h
[15] = biological target: T2, IRAK4; test: IRAK4 WB degradation (DC50); type: cell-based
[16] = biological target: T1, AIOLOS; test: AIOLOS degradation in OCI-LY10 (DC50); type: cell-based
[17] = system: OCI-LY10; test: OCI-LY10 viability, CTG; type: cell-based
[18] = system: SU-DHL6; test: SU-DHL6 viability, CTG; type: cell-based
[19] = system: IL-6; test: IL-6 secretion in hPBMC using R848 stimulation; type: cell-based, human
[20] = biological target: T2, IRAK4; test: hPBMC IRAK4 degradation flow assay; type: cell-based; settings: hPBMC monocyte, 20 hr, flow assay; read-out: IRAK4 degradation in hPBMC monocyte at 20 hr: Average external Abs DC50
Method in brief: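 Thawed human PBMCs treated with 10-point, 5-fold compound dilutions (0.1% DMSO) at 37° C. for 20 hours or 4 hours. IRAK4 measured by flow MFI in CD14+ monocytes and CD14− lymphocytes, normalized to DMSO and 10 μM 20-hour control; DC50 and max degradation from 4-parameter logistic fit.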

[21] = system: C57BL/6 mice; test: IMQ (imiquimod) induced psoriasis; type: in vivo, mouse; settings: oral dosing; FIG. 36
Description: A model of psoriasis includes the effects of degrader on epidermal hyperplasia development induced by daily topical application of 5% imiquimod in C57BL/6 mice. On each of Days 0 to 6, mice had 5% imiquimod cream administered topically on left ear and shaved back skin. Control mice (no imiquimod group) received control cream without imiquimod. […] The last dosing was on Day 6 for all mice. All dosing was at the same time (+/−1 hour) each day. For the BID groups there was no less than 9 and no more than 15 hours between doses. Readouts were body weight, PASI score, and skin thickness. Body weight was measured 3 times/week, starting on Day −3. Once on each of Days 0, 3, 5, 6, and 7, back and ear thickness was measured with calipers. Each measurement was performed blind, by a person unaware of the group or previous measurement. On Day 7, approximately 24 hours after the last imiquimod application, all mice were euthanized and blood collected via cardiac bleed into EDTA tubes. Plasma was isolated, and frozen. Tissues of interest were removed, weighed, recorded and frozen.

[22] = Homo sapiens, SU-DHL-2, MYD88 MUT, read-out: SU-DHL2 CTG IC50
[23] = OCI-LY10, 4 hrs, read-out: IRAK4 MSD degradation in OCI-LY10 at 4 hrs: Average external-Abs DC50
[24] = Homo sapiens, U2932, MYD88 WT, read-out: U2932 CTG IC50
[25] = Homo sapiens, OCI-LY19, MYD88 WT, read-out: OCI-LY19 CTG IC50
[26] = Homo sapiens, OCI-Ly10, MYD88 MUT, read-out: OCI-LY10 CTG IC50
[27] = Homo sapiens, SU-DHL-6, MYD88 WT, read-out: SU-DHL6 CTG IC50
[28] = OCI-LY10, 24 hrs, read-out: IRAK4 MSD degradation in OCI-LY10 at 24 hrs: Average external-Abs DC50

T1 sequence (Q9UKT9 whole entry): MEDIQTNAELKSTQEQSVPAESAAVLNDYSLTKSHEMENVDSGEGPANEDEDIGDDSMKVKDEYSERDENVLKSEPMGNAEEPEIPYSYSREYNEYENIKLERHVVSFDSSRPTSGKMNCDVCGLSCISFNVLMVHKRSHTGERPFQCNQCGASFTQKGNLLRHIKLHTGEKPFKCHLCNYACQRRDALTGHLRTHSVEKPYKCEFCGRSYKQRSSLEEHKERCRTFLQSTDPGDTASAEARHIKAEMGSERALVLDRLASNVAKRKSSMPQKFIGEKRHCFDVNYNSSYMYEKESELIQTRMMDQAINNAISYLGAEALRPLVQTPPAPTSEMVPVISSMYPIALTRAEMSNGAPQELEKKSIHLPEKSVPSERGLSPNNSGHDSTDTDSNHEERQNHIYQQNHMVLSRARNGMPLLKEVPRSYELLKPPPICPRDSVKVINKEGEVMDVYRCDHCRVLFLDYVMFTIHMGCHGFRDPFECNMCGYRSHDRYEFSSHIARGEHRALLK
T1 sequence (Q96SW2 whole entry): as the sequence (Q96SW2 whole entry) above
T1 sequence (Q16531 whole entry partner): as the sequence (Q16531 whole entry partner) above

## O=C1CCC(N2C(=O)c3cccc(NCCCOC4CCN(C[C@H]5CC[C@H](n6cc(NC(=O)c7cnn8ccc(N9CCOCC9)nc78)c(C(F)F)n6)CC5)CC4)c3C2=O)C(=O)N1 (stereo partly drawn) [I-208]
[1]; [22]
  IC50: 366 nM
[2]; 24 mg/kg PO QD
  Aiolos ↓ (% Control): 30.9 % Control
[2]; 72 mg/kg PO QD
  Aiolos ↓ (% Control): 62.4 % Control
[2]; 240 mg/kg PO QD
  Aiolos ↓ (% Control): 68.6 % Control
[3]; 24 mg/kg PO QD
  IRAK4 ↓ (% Control): 57.8 % Control
[3]; 72 mg/kg PO QD
  IRAK4 ↓ (% Control): 78.7 % Control
[3]; 240 mg/kg PO QD
  IRAK4 ↓ (% Control): 86.5 % Control
[4]; read-out: IRAK4 OCI-LY10 DC50
  DC50: 20 nM
[5]
  DC50: 3 nM
[6]; [23]
  DC50: 10 to 100 nM
[7]; 24 mg/kg PO QD
  Interferon Response IFIT3 Increase (Fold): >43.1 Fold
[7]; 72 mg/kg PO QD
  Interferon Response IFIT3 Increase (Fold): >64.0 Fold
[7]; 240 mg/kg PO QD
  Interferon Response IFIT3 Increase (Fold): >59.7 Fold
[8]; [24]
  IC50: 1800 nM
[9]; 24 mg/kg PO QD
  Ikaros ↓ (% Control): 46.3 % Control
[9]; 72 mg/kg PO QD
  Ikaros ↓ (% Control): 71.0 % Control
[9]; 240 mg/kg PO QD
  Ikaros ↓ (% Control): 81.2 % Control
[10]; single agent, QD, 24, 72, and 240 mg/kg (FIG. 21)
  Regression of OCI-LY10 tumor xenograft: with regression
[10]; single agent, QD, 24, 72, and 240 mg/kg (FIG. 21), listed as 1-208
  Regression of OCI-LY10 tumor xenograft: drives regression
[11]; Homo sapiens, OCI-Ly10, 96 h
  IC50: < 50 nM
[12]
  IC50: 3000 nM
[13]; [25]
  IC50: 1700 nM
[14]; 24 mg/kg PO QD
  Interferon Response IFIT1 Increase (Fold): >24.4 Fold
[14]; 72 mg/kg PO QD
  Interferon Response IFIT1 Increase (Fold): >41.5 Fold
[14]; 240 mg/kg PO QD
  Interferon Response IFIT1 Increase (Fold): >38.7 Fold
[15]
  DC50: 130 nM
[16]
  DC50: < 3 nM
[17]; [26]
  IC50: 36 nM
[18]; [27]
  IC50: 833 nM

## Cn1c(=O)n([C@H]2CCC(=O)NC2=O)c2cccc(CCCOC3CCN(CC4CCC(n5cc(NC(=O)c6cnn7ccc(N8CCOCC8)nc67)c(C(F)F)n5)CC4)CC3)c21 (stereo partly drawn) [I-257, N-[3-(difluoromethyl)-1-[4-[[4-[3-[1-[(3S)-2,6-dioxo-3-piperidyl]-3-methyl-2-oxo-benzimidazol-4-yl]propoxy]-1-piperidyl]methyl]cyclohexyl]pyrazol-4-yl]-5-morpholino-pyrazolo[1,5-a]pyrimidine-3-carboxamide]
[19]; hPBMC, R848 as stim, t = 20 h
  IC50: < 1 nM
[1]; MYD88 MUT, read-out: SU-DHL2 CTG IC50
  IC50: 6900 nM
[1]; MYD88 Mutant Lines, read-out: SU-DHL2 Viability, CTG IC50
  IC50: 6900 nM
[3]; PO, BID (FIG. 18)
  IRAK4 degradation in OCI-LY10 tumor xenograft: 90%
[4]; read-out: IRAK4 Degradation in OCI-LY10, DC50
  DC50: 5 nM
[4]; read-out: IRAK4 OCI-LY10 DC50
  DC50: 5 nM
[6]; [23]
  DC50: < 10 nM
[6]; [28]
  DC50: < 10 nM
[8]; MYD88 WT Lines, read-out: U2932 Viability, CTG IC50
  IC50: > 10000 nM
[8]; MYD88 WT, read-out: U2932 CTG IC50
  IC50: 10000 nM
[10]; BID, 150 mg/kg (FIG. 18)
  Regression of OCI-LY10 tumor xenograft: without regression
[10]; BID, 150 mg/kg (FIG. 18), listed as 1-257
  Regression of OCI-LY10 tumor xenograft: without causing regression
[11]
  IC50: > 1000 nM
[13]; MYD88 WT Lines, read-out: OCI-LY19 Viability, CTG IC50
  IC50: 4700 nM
[13]; MYD88 WT, read-out: OCI-LY19 CTG IC50
  IC50: 4700 nM
[20]
  DC50: < 10 nM
[15]
  DC50: 3 nM
[17]; MYD88 MUT, read-out: OCI-LY10 CTG IC50
  IC50: 1200 nM
[17]; MYD88 Mutant Lines, read-out: OCI-LY10 Viability, CTG IC50
  IC50: 1200 nM
[18]; MYD88 WT Lines, read-out: SU-DHL6 Viability, CTG IC50
  IC50: 5600 nM
[18]; MYD88 WT, read-out: SU-DHL6 CTG IC50
  IC50: 5600 nM

## Cn1c(=O)n(C2CCC(=O)NC2=O)c2cccc(C#CCOC3CCN(C[C@H]4CC[C@H](n5cc(NC(=O)c6cnn7ccc(N8C[C@H]9C[C@@H]8CO9)nc67)c(C(F)F)n5)CC4)CC3)c21 (stereo partly drawn) [I-417, N-[3-(difluoromethyl)-1-[4-[[4-[3-[1-(2,6-dioxo-3-piperidyl)-3-methyl-2-oxo-benzimidazol-4-yl]prop-2-ynoxy]-1-piperidyl]methyl]cyclohexyl]pyrazol-4-yl]-5-[(1R,4R)-2-oxa-5-azabicyclo[2.2.1]heptan-5-yl]pyrazolo[1,5-a]pyrimidine-3-carboxamide]
[19]; Homo sapiens, 20 h, read-out: IL-6 Secretion in hPBMC, R848 as stim, t = 20 h: IC50
  IC50: < 1 nM
[21]
  skin thickening in mice treated with topical imiquimod: significantly reduced skin thickening
[11]; Homo sapiens, 96 h
  IC50: > 1000 nM

## CN(CCCOCCNc1cccc2c1C(=O)N(C1CCC(=O)NC1=O)C2=O)C[C@H]1CC[C@H](n2cc(NC(=O)c3coc(-c4ccnc(NCC5CC5)c4)n3)c(C(F)F)n2)CC1 (stereo partly drawn) [I-168]
[1]; [22]
  IC50: 64 nM
[4]; read-out: IRAK4 OCI-LY10 DC50
  DC50: 20 nM
[5]
  DC50: 5 nM
[6]; [23]
  DC50: 10 to 100 nM
[6]; [28]
  DC50: < 10 nM
[8]; [24]
  IC50: 410 nM
[11]; Homo sapiens, OCI-Ly10, 96 h
  IC50: < 50 nM
[12]
  IC50: 290 nM
[13]; [25]
  IC50: 430 nM
[15]
  DC50: 78 nM
[16]
  DC50: 5 nM
[17]; [26]
  IC50: 31 nM
[18]; [27]
  IC50: 1900 nM
